“And” between values parts separate entries of the source, which are not always exact repeats. Equal values may be shown once.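 These data come from cells grown in 96-well plates and exposed to compound for 48 hours at five concentrations. At the GI50, growth is halved. TGI is the concentration that stops growth completely.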
Experiments:
Assay in all cases: NCI-60 cell line screen, 48 h
[1] = tested on: A498 renal
[2] = tested on: SR leukemia
[3] = tested on: LOX IMVI melanoma
[4] = tested on: NCI-H23 lung
[5] = tested on: OVCAR-4 ovarian
[6] = tested on: SF-268 CNS
[7] = tested on: MALME-3M melanoma
[8] = tested on: HS 578T breast
[9] = tested on: HT29 colon
[10] = tested on: EKVX NSCLC

| SMILES | GI50 [1] [µM] | TGI [1] [µM] | GI50 [2] [µM] | TGI [2] | GI50 [3] | TGI [3] | GI50 [4] | TGI [4] | GI50 [5] | TGI [5] | GI50 [6] | TGI [6] [µM] | GI50 [7] [µM] | TGI [7] | GI50 [8] | TGI [8] | GI50 [9] | TGI [9] | GI50 [10] | TGI [10] |
| --- | --- | --- | --- | --- | --- | --- | --- | --- | --- | --- | --- | --- | --- | --- | --- | --- | --- | --- | --- | --- |
| CN(C)c1ccc(/C=C/c2cc[n+](C)c(/C=C/c3ccc(N(C)C)cc3)c2)cc1 | 0.194 | 1.81 | 0.309 | 2.45 µM | 0.356 µM | 1.45 µM | 0.194 µM | 1.21 µM | 0.225 µM | 1.01 µM | 0.399 µM | 6.26 | 0.39 | 2.21 µM | 0.491 µM | 16.6 µM | 0.274 µM | 2.65 µM | – | – |
| CN(C)CCNC(=O)c1ccc(NC(=O)c2nc([N+](=O)[O-])cn2C)cc1 | – | > 100 | – | > 100 µM | – | > 100 µM | – | > 100 µM | – | > 100 µM | – | > 100 | – | > 100 µM | – | > 100 µM | – | > 100 µM | – | – |
| N#C/C(=C\c1ccc(Br)cc1)n1nnc2ccc(F)cc21 | 1.7 | 3.54 | 0.348 | > 100 µM | 0.347 µM | 1.28 µM | 1.42 µM | 3.34 µM | 0.939 µM | 5.31 µM | 1.84 µM | 4.33 | 1.44 | 4.68 µM | 2.71 µM | 20.4 µM | – | – | – | – |
| O=C(/C=C/c1ccc(C(F)(F)F)cc1)c1ccc(Nc2nc(NCCO)nc(Nc3ccc(Cl)cc3)n2)cc1 | 1.67 | 12.6 | 1.95 | 8.74 µM | 1.66 µM | 3.22 µM | 10.7 µM | 26.2 µM | 4.14 µM | 15.5 µM | 5.05 µM | 18.7 | 13.9 | 28.5 µM | 2.82 µM | 15.6 µM | 2.32 µM | 6.37 µM | 3.41 µM | 14.5 µM |
| CSc1nc(SC)c2c(CO)c(Br)n(Cc3ccccc3)c2n1 | – | 14.5 | – | > 100 µM | – | > 100 µM | – | > 100 µM | – | 41.7 µM | – | 33.7 | – | > 100 µM | – | 58.9 µM | – | > 100 µM | – | > 100 µM |
| O=C1C[C@@H]2/C(=C(O)\C=C\c3ccccc3)C(=O)C=C[C@@H]2O1 | 10.9 | 23.1 | 0.464 | 17 µM | 0.214 µM | 0.485 µM | 1.78 µM | 3.95 µM | 3.64 µM | 13 µM | 2.09 µM | 6.14 | 1.42 | 3 µM | 5.27 µM | 60.5 µM | 0.844 µM | 2.4 µM | 13 µM | 26 µM |
| C#CCOc1cccc(Nc2ncnc3cc(NC(=O)CCl)ccc23)c1 | 12.7 | 25.9 | 0.49 | 5.59 µM | 1.19 µM | 2.7 µM | 3.4 µM | 16.7 µM | 12.1 µM | 35.7 µM | 4.32 µM | 19.7 | 5.21 | 20.5 µM | 3.61 µM | 26.9 µM | 2.08 µM | 6.11 µM | 12 µM | 30 µM |
| COc1cc(-c2nc(SCCC(C)C)nc(Nc3ccc(S(N)(=O)=O)cc3)c2C#N)cc(OC)c1OC | 1.89 | 5.36 | 1.91 | 6.86 µM | 1.91 µM | 4.41 µM | 2.92 µM | 12.5 µM | 3.45 µM | > 100 µM | 3.67 µM | > 100 | 1.6 | 4.14 µM | 2.21 µM | 7.77 µM | 2.25 µM | 5.13 µM | 3.42 µM | > 100 µM |
| Cn1cc(-c2ccc(-c3ccc(C4=NC5(CC5)C(=O)N4C[C@@H]4CCN(C(=O)C5CC5)C4)cc3)cc2)cn1 | 2.16 | 23.7 | 1.68 | 95.3 µM | 1.47 µM | 18 µM | 12.7 µM | 41.8 µM | 5.74 µM | > 100 µM | 11.9 µM | > 100 | 18.6 | 40.9 µM | 19.2 µM | 84.1 µM | 12.5 µM | > 100 µM | 12.9 µM | 55.8 µM |
| O=C1C(Cl)=C(NCc2ccco2)C(=O)c2ccccc21 | 17.7 | 59.2 | 20.6 | > 100 µM | 7.1 µM | 72.7 µM | 2.5 µM | 10.4 µM | 6.91 µM | 19.2 µM | 22.5 µM | 81.9 | 2.03 | 4.37 µM | 3.2 µM | 10.1 µM | 6.14 µM | > 100 µM | 37.3 µM | > 100 µM |
| C=C(c1ccccc1)[C@@]1(O)CC[C@@H]1N(CC#N)Cc1ccccc1 | – | > 100 | – | > 69.9 µM | – | 34.6 µM | – | 68 µM | – | 29.1 µM | – | > 83.9 | – | 27.5 µM | – | 65 µM | – | 40 µM | – | > 88.9 µM |
| COC(=O)[C@@H](C)C[C@H](Cc1ccccc1)NC(=O)c1csc([C@@H](C[C@H](C(C)C)N(C)C(=O)[C@@H](NC(=O)[C@H]2CCCCN2C)C2CC2)OC(C)=O)n1 | 0.000862 | – | – | > 16.5 µM | 0.000562 µM and 0.00165 µM | > 16.5 µM | 0.000532 µM and 0.00165 µM | > 16.5 µM | 0.00909 µM and 0.006 µM | > 16.5 µM | 0.000594 µM and 0.00165 µM | > 16.5 | 0.000312 | – | 0.00112 µM and 0.00165 µM | > 16.5 µM | 0.000264 µM and 0.00165 µM | 0.00135 µM and 0.00208 µM | 0.0046 µM and 0.00165 µM | > 16.5 µM |
| NCCCNCCCCNC(=O)C(O)NC(=O)CCCCCCN=C(N)N (stereo not given) | 1500 | > 5000 | 530 | 750 µM and > 4240 µM | 828 µM | 750 µM and 1570 µM | 2330 µM | 750 µM and > 5000 µM | 2490 µM | 619 µM and > 2810 µM | 3070 µM | > 5000 | 1920 | 628 µM and 3050 µM | 2070 µM | 750 µM and 3990 µM | > 3580 µM | > 5000 µM | 4980 µM | 742 µM and > 5000 µM |
| Cc1cc(C)c(-n2c(-c3ccc(Br)cc3)cs/c2=N\N=C2C=C(C(C)(C)C)C(=O)C(C(C)(C)C)=C2)c(C)c1 | – | 97.7 | – | > 100 µM | – | > 100 µM | – | > 100 µM | – | > 100 µM | – | > 100 | – | > 100 µM | – | 62.5 µM | – | > 100 µM | – | > 100 µM |

— PubChem BioAssay (NCI)
